The nature of data set [1]: Rat PK evaluation. It counts as in vivo. The following applies: SD rats; for Vz_obs iv (apparent distribution volume) / bioavailability / AUC(0-t) / clearance / half-life: n = 3; for bioavailability / AUC(0-t) / clearance / half-life / Tmax: rat, plasma; for bioavailability: read-out: F % (absolute bioavailability); for clearance: read-out: Cl_obs iv (clearance rate) (converted); for Tmax: n = 3, median, read-out: Tmax po (time to peak plasma concentration). The procedure:
Assay 2: Rat PK Evaluation for the Compounds of the Present Invention
Animal Administration and Sample Collection:
The test compounds 14, 15, 16, 20, 29, 30, 31, 32, 33, 34, 36, 37, 47 and 48 were dissolved in 5% DMSO+20% (30% solutol)+75% saline to prepare the compound solutions. Each of the compound solutions was intragastrically administered to SD rats at a dose of 5.0 mg/kg. The time points of blood collection were: 15 minutes, 30 minutes, 1 hour, 2 hours, 4 hours, 6 hours, 8 hours, 24 hours, 30 hours, and 48 hours.
The test compounds 38, 39, 40 and 41 were dissolved in 5% NMP+5% Tween-80+90% saline to prepare the compound solutions. Each of the compound solutions was intragastrically administered to SD rats at a dose of 5.0 mg/kg. The time points of blood collection were: 15 minutes, 30 minutes, 1 hour, 2 hours. 4 hours, 6 hours, 8 hours, 24 hours, 30 hours, and 48 hours.
The test compounds 14, 15, 16, 20, 29, 30, 31, 32, 33, 34, 36, 37, 47 and 48 were dissolved in 5% DMSO+20% (30% solutol)+75% saline to prepare the compound solutions. Each of the compound solutions was administered by intravenous bolus injection to SD rats at a dose of 1 mg/kg. The time points of blood collection were: 5 minutes, 15 minutes, 30 minutes, 1 hour, 2 hours, 4 hours, 6 hours, 8 hours, 24 hours, and 48 hours.
The test compounds 38, 39, 40 and 41 were dissolved in 5% NMP+5% Tween-80+90% saline to prepare the compound solutions. Each of the compound solutions was administered by intravenous bolus injection to SD rats at a dose of 1 mg/kg. The time points of blood collection were: 5 minutes, 15 minutes, 30 minutes, 1 hour, 2 hours, 4 hours, 6 hours, 8 hours, 24 hours, and 48 hours.
The animal was fixed. The tail was heated in a water bath pot 10 minutes before each time point. About 100 μL of blood was collected through the tail vein. The blood was collected and placed in an anti-coagulation tube containing EDTA-K2. The blood sample was centrifuged at 8000 rpm for 6 minutes at 4° C. to obtain a plasma sample. The plasma was prepared within 30 minutes after the blood collection. The plasma was stored in a −80° C. refrigerator before testing.
The sample to be tested was taken out from the −80° C. refrigerator, naturally melted at room temperature and vortexed for 5 minutes. 20 μL of plasma sample was accurately pipetted into a 1.5 mL centrifuge tube. 200 μL of an internal standard working solution (a solution of tolbutamide in methanol) having a concentration of 100 ng/mL was added and mixed well. The mixture was vortexed for 5 minutes, and centrifuged at 12000 rpm for 5 minutes. 50 μL of the supernatant was accurately pipetted into a 96-well plate pre-filled with 150 μL/well of water. The plate was vortexed for 5 minutes and mixed well, and then the LC-MS/MS determination and analysis were performed.
The concentration of the test substance was output using Analyst 1.6.3 from AB Company. Parameters such as mean, standard deviation, and coefficient of variation were calculated with Microsoft Excel (direct outputs from Analyst 1.6.3 were not calculated), and the PK parameters were calculated using Pharsight Phoenix 6.1 software NCA (Tmax was the median).

Data set [2] concerns the target T1, TrkC (h) (Homo sapiens, UniProt Q16288).
T1 construct: purchased
In words: Enzymatic activity test, TrkC (h). It counts as biochemical. The note with it: 10 μM [γ-33P]-ATP, 40 minutes, room temperature. The procedure:
Assay 4: Enzymatic Activity Test of the Compound of the Present Invention
Test substances: the compounds of the present invention, wherein the structures and preparations thereof were as described above.
Preparation of the Compound Stock Solution
The compound was dissolved in 100% DMSO to prepare a stock solution with a maximum concentration of 500 μM.
Preparation of the Compound Working Solution
The compound stock solution was diluted to final concentrations of 500, 150, 50, 15. 5, 1.5, 0.5, 0.15 and 0.05 μM to become the compound working solutions (50×).
Preparation of Different Enzyme Reaction Solutions
The TrkC (h) enzyme was dissolved in 8 mM MOPS (pH 7.0), 0.2 mM EDTA, and 500 μM GEEPLYWSFPAKKK to prepare an enzyme solution having a final concentration of 38 nM. The enzymatic reaction was activated by using 10 mM magnesium acetate and 10 μM [γ-^33P]-ATP to form an Mg/ATP mixed solution.
In a 384-well plate, the compound working solution was added to final concentrations of 10000, 3000, 1000, 300, 100, 30, 10, 3, and 1 nM. Then different enzyme reaction solutions prepared according to the above conditions were added. The incubation was carried out for 40 minutes at room temperature. The test was terminated by the addition of a 0.5% phosphoric acid solution. 10 μL of the reaction solution was taken and dropped to the P30 filter paper. The filter paper was washed 4 times with 0.425% phosphoric acid solution and once with methanol, and then placed on a scintillation counter. The […] IC50 values were calculated using GraphPad 5.0 software.

[3] abbreviates: IV 1 mg/kg, read-out: AUClast iv (area under the drug-time curve from 0 to 48 hours).
[4] abbreviates: IV 1 mg/kg, read-out: tz1/2 iv (terminal elimination half-life) (converted).
Setting [5] is: PO 5 mg/kg, read-out: AUClast po (area under the drug-time curve from 0 to 48 hours).
The mark [6] stands for this setting: PO 5 mg/kg, read-out: tz1/2 po (terminal elimination half-life) (converted).

Where two headings read alike, the source gives them in different places.

T1 sequence (Q16288 32-839): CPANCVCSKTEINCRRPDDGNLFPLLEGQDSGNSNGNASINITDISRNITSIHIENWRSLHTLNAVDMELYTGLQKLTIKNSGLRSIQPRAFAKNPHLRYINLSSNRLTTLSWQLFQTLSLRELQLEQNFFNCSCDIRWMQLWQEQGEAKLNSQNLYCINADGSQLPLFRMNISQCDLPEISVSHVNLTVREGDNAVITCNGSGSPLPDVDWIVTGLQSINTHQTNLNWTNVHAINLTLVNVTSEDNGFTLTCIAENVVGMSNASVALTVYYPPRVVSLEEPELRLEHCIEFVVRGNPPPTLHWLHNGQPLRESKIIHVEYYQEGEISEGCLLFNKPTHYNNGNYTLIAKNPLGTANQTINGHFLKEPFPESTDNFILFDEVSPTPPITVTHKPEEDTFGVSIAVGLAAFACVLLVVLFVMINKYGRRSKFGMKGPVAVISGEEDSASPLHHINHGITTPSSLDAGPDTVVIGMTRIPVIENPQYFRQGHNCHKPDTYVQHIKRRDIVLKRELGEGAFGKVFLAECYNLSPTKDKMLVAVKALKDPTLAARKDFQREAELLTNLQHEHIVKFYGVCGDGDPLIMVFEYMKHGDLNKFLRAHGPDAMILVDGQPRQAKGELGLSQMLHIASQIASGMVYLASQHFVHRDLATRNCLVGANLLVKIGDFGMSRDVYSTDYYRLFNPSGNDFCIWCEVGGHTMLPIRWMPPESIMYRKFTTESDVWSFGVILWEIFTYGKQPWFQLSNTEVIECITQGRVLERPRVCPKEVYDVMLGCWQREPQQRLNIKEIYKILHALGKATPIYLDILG

For the compound `COc1cc2nccc(Oc3ccc(NC(=O)c4cn(C5CC5)cc(-c5ccc(F)cc5)c4=O)nc3)c2cc1OC` [Compound 30, N-(5-((6,7-dimethoxyquinolin-4-yl)oxy)pyridin-2-yl)-1-cyclopropyl-4-oxo-5-para-fluorophenyl-1,4-hydropyridin-3-carboxamide], the “Vz_obs iv (apparent distribution volume)” value in data set [1] (IV 1 mg/kg) amounted to 0.30 L/kg. The bioavailability in data set [1] (IV 1 mg/kg, PO 5 mg/kg) worked out at 78.7%. In addition, the results for the AUC(0-t) in data set [1] (setting [3]) and in data set [1] (setting [5]) were 41400 ng·h/mL and 152000 ng·h/mL, respectively. For the same compound, in data set [1] (IV 1 mg/kg), the clearance is 0.4 mL/min/kg. The half-life is 8.68 h in data set [1] (setting [4]) and 13.4 h in data set [1] (setting [6]). Moreover, in data set [1] (PO 5 mg/kg), the Tmax worked out at 6 h.

`COc1cc2nccc(Oc3ccc(NC(=O)c4nn(C5CC5)cc(-c5ccc(F)cc5)c4=O)cn3)c2cc1OC` [Compound 36] registered an IC50 in data set [2] of 3 nM. The “Vz_obs iv (apparent distribution volume)” value in data set [1] (IV 1 mg/kg) turned out to be 0.095 L/kg. Besides, the bioavailability in data set [1] (IV 1 mg/kg, PO 5 mg/kg) is 57.5%. The figures for the AUC(0-t) in data set [1] (setting [3]) and in data set [1] (setting [5]) were 167000 ng·h/mL and 463000 ng·h/mL, respectively. For the same compound, the clearance in data set [1] (IV 1 mg/kg) was 0.0967 mL/min/kg. Moreover, the half-life in data set [1] (setting [4]) was 11.6 h; in data set [1] (setting [6]) it was 12.7 h. Also, in data set [1] (PO 5 mg/kg), the Tmax was determined as 4 h.

`COc1cc2nccc(Oc3ncc(NC(=O)c4nn(C5CC5)cc(-c5ccc(F)cc5)c4=O)cn3)c2cc1OC` [Compound 37, 1-cyclopropyl-N-(2-((6,7-dimethoxyquinolin-4-yl)oxy)pyrimidine-5-yl)-5-para-fluorophenyl-4-oxo-1,4-dihydropyridazine-3-carboxamide] returned a half-maximal inhibitory concentration (IC50) in data set [2] of 4 nM. For the same compound, the “Vz_obs iv (apparent distribution volume)” value in data set [1] (IV 1 mg/kg) was 0.12 L/kg. Further, the bioavailability in data set [1] (IV 1 mg/kg, PO 5 mg/kg) is 78.7%. Besides, the AUC(0-t) is 69700 ng·h/mL in data set [1] (setting [3]) and 273000 ng·h/mL in data set [1] (setting [5]). The clearance in data set [1] (IV 1 mg/kg) was 0.233 mL/min/kg. The half-life in data set [1] (setting [4]) was 5.98 h; in data set [1] (setting [6]), 7.73 h. In addition, in data set [1] (PO 5 mg/kg), the Tmax was 4 h.

With `COc1cc2nccc(Oc3cnc(NC(=O)c4nn(C(C)C)cc(-c5ccc(F)cc5)c4=O)nc3)c2cc1OC` [Compound 16, N-(5-((6,7-dimethoxyquinolin-4-yl)oxy)pyrimidine-2-yl)-5-(4-fluorophenyl)-1-isopropyl-4-oxo-1,4-dihydropyridazine-3-carboxamide], in data set [1] (IV 1 mg/kg), the “Vz_obs iv (apparent distribution volume)” value amounted to 0.12 L/kg. In data set [1] (IV 1 mg/kg, PO 5 mg/kg), the bioavailability is 35.6%. In addition, the AUC(0-t) in data set [1] (setting [3]) is 48600 ng·h/mL; in data set [1] (setting [5]) it was 86400 ng·h/mL. In data set [1] (IV 1 mg/kg), the clearance was 0.35 mL/min/kg. In addition, the half-life in data set [1] (setting [4]) was 4.13 h; in data set [1] (setting [6]) it was 5.67 h. Besides, the Tmax in data set [1] (PO 5 mg/kg) is 1 h.

In the case of `COc1cc2nccc(Oc3ccc(NC(=O)c4cn(C(C)C)nc(-c5ccc(F)cc5)c4=O)nc3)c2cc1OC` [Compound 41, N-(5-((6,7-dimethoxyquinolin-4-yl)oxy)pyridin-2-yl)-6-(4-fluorophenyl)-2-isopropyl-5-oxo-2,5-dihydropyridazine-4-carboxamide], the “Vz_obs iv (apparent distribution volume)” value in data set [1] (IV 1 mg/kg) turned out to be 6.81 L/kg. In addition, the bioavailability in data set [1] (IV 1 mg/kg, PO 5 mg/kg) turned out to be 103%. In addition, the AUC(0-t) turned out to be 2750 ng·h/mL in data set [1] (setting [3]) and 14400 ng·h/mL in data set [1] (setting [5]). Further, the clearance in data set [1] (IV 1 mg/kg) is 5.83 mL/min/kg. In addition, the figures for the half-life in data set [1] (setting [4]) and in data set [1] (setting [6]) were 14.1 h and 13.7 h, respectively. Also, the Tmax in data set [1] (PO 5 mg/kg) stood at 4 h.

Regarding `COc1cc2nccc(Oc3cnc(NC(=O)c4cn(C(C)C)cc(-c5ccc(F)cc5)c4=O)nc3)c2cc1OC` [Compound 20, N-(5-((6,7-dimethoxyquinolin-4-y)oxy)pyrimidine-2-yl)-5-(4-fluorophenyl)-1-isopropyl-4-oxo-1,4-dihydropyridin-3-carboxamide], in data set [1] (IV 1 mg/kg), the “Vz_obs iv (apparent distribution volume)” value is 0.18 L/kg. Further, the bioavailability in data set [1] (IV 1 mg/kg, PO 5 mg/kg) amounted to 53.3%. Moreover, the AUC(0-t) in data set [1] (setting [3]) was 29100 ng·h/mL; in data set [1] (setting [5]), 77900 ng·h/mL. Moreover, in data set [1] (IV 1 mg/kg), the clearance is 0.667 mL/min/kg. Besides, the half-life is 3.1 h in data set [1] (setting [4]) and 5.4 h in data set [1] (setting [6]). Besides, in data set [1] (PO 5 mg/kg), the Tmax was determined as 6 h.

Take `COc1cc2nccc(Oc3ccc(NC(=O)c4nn(C(C)C)cc(-c5ccc(F)cc5)c4=O)cn3)c2cc1OC` [Compound 29, N-(6-((6,7-dimethoxyquinolin-4-yl)oxy)pyridin-3-yl)-1-isopropyl-4-oxo-5-para-fluorophenyl-1,4-dihydropyridazine-3-carboxamide]: the “Vz_obs iv (apparent distribution volume)” value in data set [1] (IV 1 mg/kg) is 0.42 L/kg. Also, the bioavailability in data set [1] (IV 1 mg/kg, PO 5 mg/kg) stood at 59.1%. The AUC(0-t) in data set [1] (setting [3]) stood at 78600 ng·h/mL; in data set [1] (setting [5]), 246000 ng·h/mL. Further, in data set [1] (IV 1 mg/kg), the clearance was 0.6 mL/min/kg. Further, the half-life is 13.7 h in data set [1] (setting [4]) and 12.2 h in data set [1] (setting [6]). For the same compound, in data set [1] (PO 5 mg/kg), the Tmax was found to be 4 h.

Take `COc1cc2nccc(Oc3ccc(NC(=O)c4cn(C(C)C)cc(-c5ccc(F)cc5)c4=O)nc3)c2cc1OC` [Compound 14, N-(5-((6,7-dimethoxyquinolin-4-yl)oxy)pyridin-2-yl)-5-(4-fluorophenyl)-1-isopropyl-4-oxo-1,4-dihydropyridin-3-carboxamide]: the “Vz_obs iv (apparent distribution volume)” value in data set [1] (IV 1 mg/kg) came out at 0.25 L/kg. Further, the bioavailability in data set [1] (IV 1 mg/kg, PO 5 mg/kg) is 63.2%. The AUC(0-t) is 34900 ng·h/mL in data set [1] (setting [3]) and 110000 ng·h/mL in data set [1] (setting [5]). For the same compound, the clearance in data set [1] (IV 1 mg/kg) is 0.45 mL/min/kg. For the same compound, the values for the half-life in data set [1] (setting [4]) and in data set [1] (setting [6]) were 6.3 h and 12.1 h, respectively. Further, in data set [1] (PO 5 mg/kg), the Tmax was found to be 2 h.

Regarding `COc1cc2nccc(Oc3cnc(NC(=O)c4cn(C5CC5)cc(-c5ccc(F)cc5)c4=O)nc3)c2cc1OC` [Compound 32, 1-cyclopropyl-N-(5-((6,7-dimethoxyquinolin-4-yl)oxy)pyrimidine-2-yl)-5-(4-fluorophenyl)-4-oxo-1,4-dihydropyridin-3-carboxamide], the “Vz_obs iv (apparent distribution volume)” value in data set [1] (IV 1 mg/kg) is 0.23 L/kg. The bioavailability in data set [1] (IV 1 mg/kg, PO 5 mg/kg) was determined as 75.4%. For the same compound, the figures for the AUC(0-t) in data set [1] (setting [3]) and in data set [1] (setting [5]) were 23900 ng·h/mL and 90500 ng·h/mL, respectively. Further, the clearance in data set [1] (IV 1 mg/kg) was 0.75 mL/min/kg. For the same compound, the half-life in data set [1] (setting [4]) was 3.74 h; in data set [1] (setting [6]) it was 5.04 h. Besides, in data set [1] (PO 5 mg/kg), the Tmax was 4 h.

These data come from patent US20220073496A1, “NOVEL QUINOLINE DERIVATIVE INHIBITOR” (Nanjing Transthera Biosciences Co., Ltd., priority 2018, published 2022).
